Measurements reported in US20240246977A1, “DEGRADATION OF BRUTON'S TYROSINE KINASE (BTK) BY CONJUGATION OF BTK INHIBITORS WITH E3 LIGASE LIGAND AND METHOD OF USE” (BeiGene Switzerland GmbH, priority 2021, published 2024).

Key:
BTK = BTK (Homo sapiens, UniProt Q06187); assay: BTK cell degradation in TMD-8 cells, HTRF assay; type: cell-based; parameters: endogenous in cells; host or cells: TMD-8 cells; settings: 6 h treatment, IC50 (DC50) of BTK degradation
In short: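 TMD-8 cells treated 6 h with 8-dose series (6-fold dilutions, 0.2% DMSO final), then lysed and BTK quantified by HTRF (337/665/620 nm) after overnight antibody incubation at room temperature. Degradation normalized to DMSO high and low controls; DC50 and Dmax from four-parameter fit.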

HEK-293 cells = assay: HEK-293 cytotoxicity detection (CellTiter-Glo); type: cell-based; settings: Homo sapiens, 72 h, 72 h incubation, CellTiter-Glo luminescence, read-out: HEK293
In short: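 HEK-293 cells exposed 72 h to 8 compounds doses (4-fold dilutions, top stock 5 mM at 500×) in 0.2% DMSO. Viability by CellTiter-Glo luminescence; inhibition normalised to DMSO high control and low control, IC50 from four-parameter curve fit.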

BTK, sequence (Q06187 whole entry): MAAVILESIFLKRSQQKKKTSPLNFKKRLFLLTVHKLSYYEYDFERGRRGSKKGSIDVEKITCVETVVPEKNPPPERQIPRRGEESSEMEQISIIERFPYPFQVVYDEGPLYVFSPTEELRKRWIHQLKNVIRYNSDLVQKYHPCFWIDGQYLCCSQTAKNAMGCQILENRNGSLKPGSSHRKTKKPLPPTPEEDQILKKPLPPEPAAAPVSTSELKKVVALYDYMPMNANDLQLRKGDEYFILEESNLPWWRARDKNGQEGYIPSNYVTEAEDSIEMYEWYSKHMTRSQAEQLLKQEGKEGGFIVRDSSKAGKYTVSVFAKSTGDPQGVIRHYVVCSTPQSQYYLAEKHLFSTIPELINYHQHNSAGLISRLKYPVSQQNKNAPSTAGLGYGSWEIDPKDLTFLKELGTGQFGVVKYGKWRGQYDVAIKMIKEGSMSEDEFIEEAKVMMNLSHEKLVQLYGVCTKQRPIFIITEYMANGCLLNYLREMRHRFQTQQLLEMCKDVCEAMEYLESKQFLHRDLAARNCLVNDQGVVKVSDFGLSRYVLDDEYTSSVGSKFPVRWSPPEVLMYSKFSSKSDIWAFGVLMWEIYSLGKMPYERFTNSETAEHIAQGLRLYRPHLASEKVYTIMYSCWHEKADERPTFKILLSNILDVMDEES

| SMILES | DC50 (BTK) [nM] | IC50 (HEK-293 cells) [nM] |
| --- | --- | --- |
| Cc1cccc(NC(=O)c2ccc(-c3nn4c(c3C(N)=O)Nc3ccc(N5CCN(C6CN(C7CN(c8ccc(C9CCC(=O)NC9=O)cc8)C7)C6)CC5)cc3CC4)c(F)c2C)n1 (centres unmarked) [Example B65, 7-(4-(1′-(4-(2,6-dioxopiperidin-3-yl)phenyl)-[1,3′-biazetidin]-3-yl)piperazin-1-yl)-2-(2-fluoro-3-methyl-4-((6-methylpyridin-2-yl)carbamoyl)phenyl)-9,10-dihydro-4H-benzo[d]pyrazol[1,5-a][1,3]diazepine-carboxamide] | 1.78 | 98.8 |
| Cc1cccc(NC(=O)c2ccc(-c3nn4c(c3C(N)=O)Nc3ccc(N5CCN(C6CC(c7ccc(N[C@@H]8CCC(=O)NC8=O)cc7)C6)CC5)cc3CC4)c(F)c2C)n1 (stereo partly drawn) [Example B71, (R)-7-(4-(3-(4-((2,6-dioxopiperidin-3-yl)amino)phenyl)cyclobutyl)piperazin-1-yl)-2-(2-fluoro-3-methyl-4-((6-methylpyridin-2-yl)carbamoyl)phenyl)-9,10-dihydro-4H-benzo[d]pyrazolo[1,5-a][1,3]diazepine-3-carboxamide] | 7.45 | > 10000 |
| Cc1cccc(NC(=O)c2ccc(-c3nn4c(c3C(N)=O)Nc3ccc(N5CCN(C[C@H]6CCN(c7ccc(N8CCC(=O)NC8=O)cc7)C6)CC5)cc3CC4)c(F)c2C)n1 [Example B74, (R)-7-(4-((1-(4-(2,4-dioxotetrahydropyrimidin-1(2H)-yl)phenyl)pyrrolidin-3-yl)methyl)piperazin-1-yl)-2-(2-fluoro-3-methyl-4-((6-methylpyridin-2-yl)carbamoyl)phenyl)-9,10-dihydro-4H-benzo[d]pyrazolo[1,5-a][1,3]diazepine-3-carboxamide] | 7.15 | > 10000 |
| Cc1cccc(NC(=O)c2ccc(-c3nn4c(c3C(N)=O)Nc3ccc(N5CCN(C(=O)Cc6cccc(N7CCC(=O)NC7=O)c6)CC5)cc3CC4)c(F)c2C)n1 [Example B75, 7-(4-(2-(3-(2,4-dioxotetrahydropyrimidin-1(2H)-yl)phenyl)acetyl)piperazin-1-yl)-2-(2-fluoro-3-methyl-4-((6-methylpyridin-2-yl)carbamoyl)phenyl)-9,10-dihydro-4H-benzo[d]pyrazolo[1,5-a][1,3]diazepine-3-carboxamide] | 30.1 | > 10000 |
| Cc1cccc(N(CC(=O)OC(C)(C)C)C(=O)c2ccc(-c3nn4c(c3C(N)=O)Nc3ccc(N5CCN(CC6CCN(c7ccc(N8CCC(=O)N(CC(=O)OC(C)(C)C)C8=O)cc7)CC6)CC5)cc3CC4)c(F)c2C)n1 [Example B77, tert-butyl 2-(3-(4-(4-((4-(2-(4-((2-(tert-butoxy)-2-oxoethyl)(6-methylpyridin-2-yl)carbamoyl)-2-fluoro-3-methylphenyl)-3-carbamoyl-9,10-dihydro-4H-benzo[d]pyrazolo[1,5-a][1,3]diazepin-7-yl)piperazin-1-yl)methyl)piperidin-1-yl)phenyl)-2,6-dioxotetrahydropyrimidin-1(2H)-yl)acetate] | > 2000 | 38.3 |
| Cc1cccc(NC(=O)c2ccc(-c3nn4c(c3C(N)=O)Nc3ccc(N5CCN(CC6CCN(c7ccc(N8CCC(=O)N(COC(=O)C(C)(C)C)C8=O)cc7)CC6)CC5)cc3CC4)c(F)c2C)n1 [Example B78, (3-(4-(4-((4-(3-carbamoyl-2-(2-fluoro-3-methyl-4-((6-methylpyridin-2-yl)carbamoyl)phenyl)-9,10-dihydro-4H-benzo[d]pyrazolo[1,5-a][1,3]diazepin-7-yl)piperazin-1-yl)methyl)piperidin-1-yl)phenyl)-2,6-dioxotetrahydropyrimidin-1(2H)-yl)methyl pivalate] | 6.27 | > 10000 |
| Cc1cccc(N(COC(=O)C(C)(C)C)C(=O)c2ccc(-c3nn4c(c3C(N)=O)Nc3ccc(N5CCN(CC6CCN(c7ccc(N8CCC(=O)N(COC(=O)C(C)(C)C)C8=O)cc7)CC6)CC5)cc3CC4)c(F)c2C)n1 [Example B79, (3-(4-(4-((4-(3-carbamoyl-2-(2-fluoro-3-methyl-4-((6-methylpyridin-2-yl)((pivaloyloxy)methyl)carbamoyl)phenyl)-9,10-dihydro-4H-benzo[d]pyrazolo[1,5-a][1,3]diazepin-7-yl)piperazin-1-yl)methyl)piperidin-1-yl)phenyl)-2,6-dioxotetrahydropyrimidin-1(2H)-yl)methyl pivalate] | 3.68 | > 10000 |

Continued, in another order:

| DC50 (BTK) [nM] | SMILES | IC50 (HEK-293 cells) [nM] |
| --- | --- | --- |
| 1.35 | Cc1cccc(NC(=O)c2ccc(-c3nn4c(c3C(N)=O)Nc3ccc(N5CCN(C6CN(c7ccc(N8CCC(=O)NC8=O)cc7)C6)CC5)cc3CC4)c(F)c2C)n1 [Example B66, 7-(4-(1-(4-(2,4-dioxotetrahydropyrimidin-1(2H)-yl)phenyl)azetidin-3-yl)piperazin-1-yl)-2-(2-fluoro-3-methyl-4-((6-methylpyridin-2-yl)carbamoyl)phenyl)-9,10-dihydro-4H-benzo[d]pyrazolo[1,5-a][1,3]diazepine-3-carboxamide] | > 10000 |
| 0.622 | Cc1cccc(NC(=O)c2ccc(-c3nn4c(c3C(N)=O)Nc3ccc(N5CCN(C6CC(c7ccc([C@H]8CCC(=O)NC8=O)cc7)C6)CC5)cc3CC4)c(F)c2C)n1 (stereo partly drawn) [Example B67, (R)-7-(4-(3-(4-(2,6-dioxopiperidin-3-yl)phenyl)cyclobutyl)piperazin-1-yl)-2-(2-fluoro-3-methyl-4-((6-methylpyridin-2-yl)carbamoyl)phenyl)-9,10-dihydro-4H-benzo[d]pyrazolo[1,5-a][1,3]diazepine-3-carboxamide] | 96.8 |
| 2.56 | Cc1cccc(NC(=O)c2ccc(-c3nn4c(c3C(N)=O)Nc3ccc(N5CCN(C6CC(c7ccc([C@@H]8CCC(=O)NC8=O)cc7)C6)CC5)cc3CC4)c(F)c2C)n1 (stereo partly drawn) [Example B68, (S)-7-(4-(3-(4-(2,6-dioxopiperidin-3-yl)phenyl)cyclobutyl)piperazin-1-yl)-2-(2-fluoro-3-methyl-4-((6-methylpyridin-2-yl)carbamoyl)phenyl)-9,10-dihydro-4H-benzo[d]pyrazolo[1,5-a][1,3]diazepine-3-carboxamide] | 105 |
| 6.23 | Cc1cccc(NC(=O)c2ccc(-c3nn4c(c3C(N)=O)Nc3ccc(N5CCN(C6CC(c7ccc(N[C@H]8CCC(=O)NC8=O)cc7)C6)CC5)cc3CC4)c(F)c2C)n1 (stereo partly drawn) [Example B72, (S)-7-(4-(3-(4-((2,6-dioxopiperidin-3-yl)amino)phenyl)cyclobutyl)piperazin-1-yl)-2-(2-fluoro-3-methyl-4-((6-methylpyridin-2-yl)carbamoyl)phenyl)-9,10-dihydro-4H-benzo[d]pyrazolo[1,5-a][1,3]diazepine-3-carboxamide] | > 10000 |
| 2.18 | Cc1cccc(NC(=O)c2ccc(-c3nn4c(c3C(N)=O)Nc3ccc(N5CCN(C(=O)C6CCN(c7ccc(N8CCC(=O)NC8=O)cc7)CC6)CC5)cc3CC4)c(F)c2C)n1 [Example B73, 7-(4-(1-(4-(2,4-dioxotetrahydropyrimidin-1(2H)-yl)phenyl)piperidine-4-carbonyl)piperazin-1-yl)-2-(2-fluoro-3-methyl-4-((6-methylpyridin-2-yl)carbamoyl)phenyl)-9,10-dihydro-4H-benzo[d]pyrazolo[1,5-a][1,3]diazepine-3-carboxamide] | > 10000 |
| > 2000 | Cc1cccc(NC(=O)c2ccc(-c3nn4c(c3C(N)=O)Nc3ccc(N5CCN(CC6CCN(c7ccc(N8CCC(=O)N(CC(=O)OC(C)(C)C)C8=O)cc7)CC6)CC5)cc3CC4)c(F)c2C)n1 [Example B76, tert-butyl 2-(3-(4-(4-((4-(3-carbamoyl-2-(2-fluoro-3-methyl-4-((6-methylpyridin-2-yl)carbamoyl)phenyl)-9,10-dihydro-4H-benzo[d]pyrazolo[1,5-a][1,3]diazepin-7-yl)piperazin-1-yl)methyl)piperidin-1-yl)phenyl)-2,6-dioxotetrahydropyrimidin-1(2H)-yl)acetate] | > 10000 |
| > 2000 | Cc1cccc(NC(=O)c2ccc(-c3nn4c(c3C(N)=O)Nc3ccc(N5CCN(CC6CCN(c7ccc(N8CCC(=O)N(CC(=O)OCc9ccccc9)C8=O)cc7)CC6)CC5)cc3CC4)c(F)c2C)n1 [Example B80, benzyl 2-(3-(4-(4-((4-(3-carbamoyl-2-(2-fluoro-3-methyl-4-((6-methylpyridin-2-yl)carbamoyl)phenyl)-9,10-dihydro-4H-benzo[d]pyrazolo[1,5-a][1,3]diazepin-7-yl)piperazin-1-yl)methyl)piperidin-1-yl)phenyl)-2,6-dioxotetrahydropyrimidin-1(2H)-yl)acetate] | > 10000 |
| > 2000 | Cc1cccc(N(CC(=O)OCc2ccccc2)C(=O)c2ccc(-c3nn4c(c3C(N)=O)Nc3ccc(N5CCN(CC6CCN(c7ccc(N8CCC(=O)N(CC(=O)OCc9ccccc9)C8=O)cc7)CC6)CC5)cc3CC4)c(F)c2C)n1 [Example B81, benzyl 2-(3-(4-(4-((4-(2-(4-((2-(benzyloxy)-2-oxoethyl)(6-methylpyridin-2-yl)carbamoyl)-2-fluoro-3-methylphenyl)-3-carbamoyl-9,10-dihydro-4H-benzo[d]pyrazolo[1,5-a][1,3]diazepin-7-yl)piperazin-1-yl)methyl)piperidin-1-yl)phenyl)-2,6-dioxotetrahydropyrimidin-1(2H)-yl)acetate] | 56.8 |
| 4.1 | Cc1c(C(=O)Nc2ccn(C)n2)ccc(-c2nn3c(c2C(N)=O)Nc2ccc(N4CCN(CC5CCN(c6ccc(N7CCC(=O)NC7=O)cc6)CC5)CC4)cc2CC3)c1F [Example B82, 7-(4-((1-(4-(2,4-dioxotetrahydropyrimidin-1(2H)-yl)phenyl)piperidin-4-yl)methyl)piperazin-1-yl)-2-(2-fluoro-3-methyl-4-((1-methyl-1H-pyrazol-3-yl)carbamoyl)phenyl)-9,10-dihydro-4H-benzo[d]pyrazolo[1,5-a][1,3]diazepine-3-carboxamide] | > 10000 |
